# Experimental data as given in BindingDB's records for PubMed 10336510 (Virginia Commonwealth University, 1999).
# How the values were obtained:
# [1] = target: Norepinephrine transporter (Rattus norvegicus, UniProt Q9JIA2)
# [2] = target: Sodium-dependent serotonin transporter (Rattus norvegicus, UniProt P31652)
# [3] = target: Sodium-dependent dopamine transporter (Rattus norvegicus, UniProt P23977)
# Chain of Sodium-dependent dopamine transporter (P23977 whole entry): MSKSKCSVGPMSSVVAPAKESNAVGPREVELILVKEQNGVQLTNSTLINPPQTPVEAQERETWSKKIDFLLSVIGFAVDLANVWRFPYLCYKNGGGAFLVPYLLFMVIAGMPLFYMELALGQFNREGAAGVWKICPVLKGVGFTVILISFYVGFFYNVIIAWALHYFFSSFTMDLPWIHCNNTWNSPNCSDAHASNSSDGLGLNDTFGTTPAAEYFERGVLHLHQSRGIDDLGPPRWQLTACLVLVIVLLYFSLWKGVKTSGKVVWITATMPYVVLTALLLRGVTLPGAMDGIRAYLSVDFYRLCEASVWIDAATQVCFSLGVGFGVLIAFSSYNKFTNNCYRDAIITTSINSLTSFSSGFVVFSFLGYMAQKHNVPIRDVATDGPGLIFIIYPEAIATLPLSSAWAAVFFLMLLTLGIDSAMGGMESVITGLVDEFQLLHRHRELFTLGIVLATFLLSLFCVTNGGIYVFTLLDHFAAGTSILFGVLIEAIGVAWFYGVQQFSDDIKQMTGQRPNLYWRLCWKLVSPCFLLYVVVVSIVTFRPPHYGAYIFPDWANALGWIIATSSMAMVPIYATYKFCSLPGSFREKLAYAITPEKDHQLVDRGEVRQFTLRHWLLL
# Chain of Sodium-dependent serotonin transporter (P31652 whole entry): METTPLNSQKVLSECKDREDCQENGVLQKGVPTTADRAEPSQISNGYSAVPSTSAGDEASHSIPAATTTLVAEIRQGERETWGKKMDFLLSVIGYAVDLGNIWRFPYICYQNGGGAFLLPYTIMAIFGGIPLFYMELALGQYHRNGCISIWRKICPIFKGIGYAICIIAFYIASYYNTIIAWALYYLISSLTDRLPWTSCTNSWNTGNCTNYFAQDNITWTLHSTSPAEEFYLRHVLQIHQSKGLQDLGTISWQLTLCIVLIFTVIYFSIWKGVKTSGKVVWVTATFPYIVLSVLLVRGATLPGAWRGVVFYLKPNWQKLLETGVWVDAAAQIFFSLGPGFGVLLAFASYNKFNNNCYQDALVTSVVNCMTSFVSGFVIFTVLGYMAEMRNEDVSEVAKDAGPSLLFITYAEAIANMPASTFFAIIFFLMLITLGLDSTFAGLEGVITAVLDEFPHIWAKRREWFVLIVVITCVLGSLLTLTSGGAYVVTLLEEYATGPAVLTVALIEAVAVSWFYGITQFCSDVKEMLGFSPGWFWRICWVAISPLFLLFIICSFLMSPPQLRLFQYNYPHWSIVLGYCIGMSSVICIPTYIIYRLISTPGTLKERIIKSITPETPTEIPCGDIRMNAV
SMILES,Ki [1],Ki [2],Ki [3]
CC(C)OC(=O)[C@@H]1C2CC[C@H](C[C@@H]1c1ccc(Cl)cc1)N2C,778 nM,1400 nM,1.4 nM
CN1[C@H]2CC[C@@H]1[C@@H](C(=O)Oc1ccccc1)[C@@H](c1ccc(Cl)cc1)C2 [RTI-113],2930 nM,2340 nM,1.98 nM
CN1[C@H]2CC[C@@H]1[C@@H](C(=O)O)[C@@H](c1ccc(Cl)cc1)C2 [RIT-70],> 10000 nM,> 10000 nM,2070 nM
CC(C)OC(=O)[C@@H]1C2CC[C@H](C[C@@H]1c1ccc(I)cc1)N2C,285 nM,66.8 nM,0.4 nM
COC(=O)[C@H]1[C@@H](c2ccc(Cl)cc2)C[C@@H]2CC[C@H]1N2C [RTI-31],,44.5 nM,1.12 nM
CN1C2CC[C@@H]1C[C@H](c1ccc(Cl)cc1)C2C(=O)N1CCCC1 (stereo partly specified) [RTI-147],3950 nM,> 10000 nM,1.38 nM
"COC(=O)C1C2CC[C@H](C[C@@H]1c1ccc(N)cc1)N2C (stereo partly drawn) [(3S,8R)-3-(4-Amino-phenyl)-8-methyl-8-aza-bicyclo[3.2.1]octane-2-carboxylic acid methyl ester]",151 nM,5110 nM,9.8 nM
"COC(=O)[C@@H]1C2CCC(C[C@@H]1c1ccc(Cl)c(Cl)c1)N2C (stereo partly drawn) [(2S,3S)-methyl 3-(3,4-dichlorophenyl)-8-methyl-8-aza-bicyclo[3.2.1]octane-2-carboxylate]",17.9 nM,3.1 nM,0.79 nM
COC(=O)[C@H]1[C@@H](c2ccc(Cl)cc2)C[C@@H]2CC[C@H]1N2 [RTI-110],5.45 nM,4.1 nM,0.62 nM
COC(=O)C1C2CC[C@H](C[C@@H]1c1ccc(C)cc1)N2C (stereo partly specified) [RTI-32],60 nM,,1.7 nM
Cc1ccc([C@H]2C[C@@H]3CC[C@H]([C@H]2C(=O)Oc2ccccc2)N3C)cc1 [RTI-120],5830 nM,> 10000 nM,3.26 nM
"COC(=O)[C@H]1[C@@H](c2ccccc2)C[C@@H]2CC[C@H]1N2C [methyl (1R,2S,3S,5S)-8-methyl-3-phenyl-8-azabicyclo[3.2.1]octane-2-carboxylate]",920 nM,,23 nM
COC(=O)[C@H]1[C@@H](c2ccc(Cl)c(C)c2)C[C@@H]2CC[C@H]1N2C,36.2 nM,10.5 nM,0.8 nM
CN1[C@H]2CC[C@@H]1[C@@H](C(=O)N1CCCC1)[C@@H](c1ccc(I)cc1)C2 [RTI-229],990 nM,1730 nM,0.37 nM
COC(=O)[C@H]1[C@@H](c2ccc(Br)cc2)C[C@@H]2CC[C@H]1N2C [RTI-51],,10.6 nM,1.69 nM
